Test: Evaluation of conversion rate to active form in buffer solution (Experimental Example 1)
Assay type: physicochemical
Conditions: for Stability in buffer solution at pH 5: pH 5, 37° C., up to 2 or 3 hours
Outline: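 Compounds at 25 umol/L were held at 37 °C in 50 mM citrate (pH 5.0, 5.5) or phosphate (pH 6.0–7.4) buffers. Remaining compound and Alvocidib formed were quantified by HPLC at 0, 0.5, 1, 2 and 3 h.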

Q: What does the source list for `C[C@H](N)C(=O)O[C@@H]1CN(C)CC[C@@H]1c1c(O)cc(O)c2c(=O)cc(-c3ccccc3Cl)oc12` [Comparative Example 7, reference compound]?
A: Production rate of Alvocidib (pH5.0, 0 hr): 2.8%; Residual rate (pH5.0, 0 hr): 96.8%; Stability in buffer solution at pH 5: unstable; Production rate of Alvocidib (pH5.0, 0.5 hr): 5.7%; Residual rate (pH5.0, 0.5 hr): 93.9%; Production rate of Alvocidib (pH5.0, 1 hr): 9.7%; Residual rate (pH5.0, 1 hr): 90.1%; Production rate of Alvocidib (pH5.0, 2 hr): 15.7%; Residual rate (pH5.0, 2 hr): 83.8%; Production rate of Alvocidib (pH5.0, 3 hr): 21.9%; Residual rate (pH5.0, 3 hr): 77.6%; Production rate of Alvocidib (pH5.5, 0 hr): 2.7%; Residual rate (pH5.5, 0 hr): 97.0%; Production rate of Alvocidib (pH5.5, 0.5 hr): 7.9%; Residual rate (pH5.5, 0.5 hr): 91.9%; Production rate of Alvocidib (pH5.5, 1 hr): 14.3%; Residual rate (pH5.5, 1 hr): 85.4%; Production rate of Alvocidib (pH5.5, 2 hr): 23.8%; Residual rate (pH5.5, 2 hr): 75.9%; Production rate of Alvocidib (pH5.5, 3 hr): 33.1%; Residual rate (pH5.5, 3 hr): 66.6%; Production rate of Alvocidib (pH6.0, 0 hr): 3.4%; Residual rate (pH6.0, 0 hr): 96.4%; Production rate of Alvocidib (pH6.0, 0.5 hr): 26.1%; Residual rate (pH6.0, 0.5 hr): 73.9%; Production rate of Alvocidib (pH6.0, 1 hr): 48.3%; Residual rate (pH6.0, 1 hr): 51.7%; Production rate of Alvocidib (pH6.0, 2 hr): 70.9%; Residual rate (pH6.0, 2 hr): 28.9%; Production rate of Alvocidib (pH6.0, 3 hr): 84.8%; Residual rate (pH6.0, 3 hr): 15.2%; Production rate of Alvocidib (pH6.5, 0 hr): 3.9%; Residual rate (pH6.5, 0 hr): 96.0%; Production rate of Alvocidib (pH6.5, 0.5 hr): 34.7%; Residual rate (pH6.5, 0.5 hr): 65.3%; Production rate of Alvocidib (pH6.5, 1 hr): 61.2%; Residual rate (pH6.5, 1 hr): 38.8%; Production rate of Alvocidib (pH6.5, 2 hr): 83.2%; Residual rate (pH6.5, 2 hr): 16.8%; Production rate of Alvocidib (pH6.5, 3 hr): 93.4%; Residual rate (pH6.5, 3 hr): 6.6%; Production rate of Alvocidib (pH7.0, 0 hr): 4.1%; Residual rate (pH7.0, 0 hr): 95.9%; Production rate of Alvocidib (pH7.0, 0.5 hr): 37.3%; Residual rate (pH7.0, 0.5 hr): 62.6%; Production rate of Alvocidib (pH7.0, 1 hr): 64.3%; Residual rate (pH7.0, 1 hr): 35.5%; Production rate of Alvocidib (pH7.0, 2 hr): 85.8%; Residual rate (pH7.0, 2 hr): 14.2%; Production rate of Alvocidib (pH7.0, 3 hr): 94.9%; Residual rate (pH7.0, 3 hr): 5.1%; Production rate of Alvocidib (pH7.4, 0 hr): 4.2%; Residual rate (pH7.4, 0 hr): 95.3%; Production rate of Alvocidib (pH7.4, 0.5 hr): 36.7%; Residual rate (pH7.4, 0.5 hr): 63.0%; Production rate of Alvocidib (pH7.4, 1 hr): 63.5%; Residual rate (pH7.4, 1 hr): 36.3%; Production rate of Alvocidib (pH7.4, 2 hr): 84.7%; Residual rate (pH7.4, 2 hr): 15.3%; Production rate of Alvocidib (pH7.4, 3 hr): 94.4%; Residual rate (pH7.4, 3 hr): 5.6%

Q: With `CN1CC[C@H](c2c(O)cc(O)c3c(=O)cc(-c4ccccc4Cl)oc23)[C@H](OC(=O)[C@@H](N)CO)C1` [Comparative Example 9, reference compound] as the compound, how does the “Production rate of Alvocidib” value (pH5.0, 0 hr) read?
A: 5.0%

Q: What about the Residual rate (pH5.0, 0 hr) of the same compound?
A: 85.7%

Q: What about the “Stability in buffer solution at pH 5” value of the same compound?
A: unstable

Q: And the “Production rate of Alvocidib” value (pH5.0, 0.5 hr)?
A: 7.1%

Q: What about the Residual rate (pH5.0, 0.5 hr) of the same compound?
A: 84.0%

Q: What about the “Production rate of Alvocidib” value (pH5.0, 1 hr) of the same compound?
A: 8.7%

Q: What about the Residual rate (pH5.0, 1 hr) of the same compound?
A: 82.6%

Q: What about the “Production rate of Alvocidib” value (pH5.0, 2 hr) of the same compound?
A: 12.8%

Q: And the Residual rate (pH5.0, 2 hr)?
A: 79.4%

Q: And the “Production rate of Alvocidib” value (pH5.0, 3 hr)?
A: 15.6%

Q: And the Residual rate (pH5.0, 3 hr)?
A: 77.0%

Q: And the “Production rate of Alvocidib” value (pH5.5, 0 hr)?
A: 4.9%

Q: What about the Residual rate (pH5.5, 0 hr) of the same compound?
A: 86.0%

Q: And the “Production rate of Alvocidib” value (pH5.5, 0.5 hr)?
A: 8.5%

Q: What about the Residual rate (pH5.5, 0.5 hr) of the same compound?
A: 83.3%

Q: And the “Production rate of Alvocidib” value (pH5.5, 1 hr)?
A: 11.3%

Q: What about the Residual rate (pH5.5, 1 hr) of the same compound?
A: 81.1%

Q: What about the “Production rate of Alvocidib” value (pH5.5, 2 hr) of the same compound?
A: 17.7%

Q: And the Residual rate (pH5.5, 2 hr)?
A: 78.4%

Q: What about the “Production rate of Alvocidib” value (pH5.5, 3 hr) of the same compound?
A: 22.4%

Q: And the Residual rate (pH5.5, 3 hr)?
A: 74.2%

Q: What about the “Production rate of Alvocidib” value (pH6.0, 0 hr) of the same compound?
A: 5.0%

Q: What about the Residual rate (pH6.0, 0 hr) of the same compound?
A: 86.0%

Q: And the “Production rate of Alvocidib” value (pH6.0, 0.5 hr)?
A: 17.1%

Q: And the Residual rate (pH6.0, 0.5 hr)?
A: 76.5%

Q: And the “Production rate of Alvocidib” value (pH6.0, 1 hr)?
A: 26.0%

Q: And the Residual rate (pH6.0, 1 hr)?
A: 69.2%

Q: What about the “Production rate of Alvocidib” value (pH6.0, 2 hr) of the same compound?
A: 43.4%

Q: What about the Residual rate (pH6.0, 2 hr) of the same compound?
A: 53.9%

Q: What about the “Production rate of Alvocidib” value (pH6.0, 3 hr) of the same compound?
A: 54.0%

Q: And the Residual rate (pH6.0, 3 hr)?
A: 44.3%

Q: What about the “Production rate of Alvocidib” value (pH6.5, 0 hr) of the same compound?
A: 5.1%

Q: What about the Residual rate (pH6.5, 0 hr) of the same compound?
A: 86.0%

Q: What about the “Production rate of Alvocidib” value (pH6.5, 0.5 hr) of the same compound?
A: 20.9%

Q: And the Residual rate (pH6.5, 0.5 hr)?
A: 74.7%

Q: What about the “Production rate of Alvocidib” value (pH6.5, 1 hr) of the same compound?
A: 31.1%

Q: What about the Residual rate (pH6.5, 1 hr) of the same compound?
A: 66.2%

Q: And the “Production rate of Alvocidib” value (pH6.5, 2 hr)?
A: 49.6%

Q: And the Residual rate (pH6.5, 2 hr)?
A: 49.4%

Q: And the “Production rate of Alvocidib” value (pH6.5, 3 hr)?
A: 60.2%

Q: What about the Residual rate (pH6.5, 3 hr) of the same compound?
A: 39.1%

Q: And the “Production rate of Alvocidib” value (pH7.0, 0 hr)?
A: 5.3%

Q: And the Residual rate (pH7.0, 0 hr)?
A: 85.9%

Q: What about the “Production rate of Alvocidib” value (pH7.0, 0.5 hr) of the same compound?
A: 21.7%

Q: And the Residual rate (pH7.0, 0.5 hr)?
A: 75.8%

Q: And the “Production rate of Alvocidib” value (pH7.0, 1 hr)?
A: 30.7%

Q: What about the Residual rate (pH7.0, 1 hr) of the same compound?
A: 68.1%

Q: What about the “Production rate of Alvocidib” value (pH7.0, 2 hr) of the same compound?
A: 47.2%

Q: What about the Residual rate (pH7.0, 2 hr) of the same compound?
A: 52.8%

Q: And the “Production rate of Alvocidib” value (pH7.0, 3 hr)?
A: 57.1%

Q: And the Residual rate (pH7.0, 3 hr)?
A: 42.9%

Q: What about the “Production rate of Alvocidib” value (pH7.4, 0 hr) of the same compound?
A: 5.6%

Q: What about the Residual rate (pH7.4, 0 hr) of the same compound?
A: 85.3%

Q: What about the “Production rate of Alvocidib” value (pH7.4, 0.5 hr) of the same compound?
A: 22.1%

Q: And the Residual rate (pH7.4, 0.5 hr)?
A: 76.2%

Q: What about the “Production rate of Alvocidib” value (pH7.4, 1 hr) of the same compound?
A: 29.7%

Q: And the Residual rate (pH7.4, 1 hr)?
A: 70.3%

Q: What about the “Production rate of Alvocidib” value (pH7.4, 2 hr) of the same compound?
A: 44.0%

Q: And the Residual rate (pH7.4, 2 hr)?
A: 56.0%

Q: And the “Production rate of Alvocidib” value (pH7.4, 3 hr)?
A: 53.3%

Q: What about the Residual rate (pH7.4, 3 hr) of the same compound?
A: 46.7%

Reference: patent US12617779B2, “Self degradation-type CDK9 inhibitor prodrug and liposome encapsulating same” (Sumitomo Pharma Co., Ltd., priority 2021, dated 2026)
